Test results reported in PMC11339798, “Dual inhibitors of Pseudomonas aeruginosa virulence factors LecA and LasB” (Chemical Science, 2024).

Test system: LecA-FITC binding to human A549 cells
Experiment: Inhibition of LecA-FITC adhesion to A549 cells by fluorescence microscopy
Format: cell-based
Details: 100 μM compound, 10 μM LecA-FITC, 4 °C, 30 min
Description: LecA-mediated cell adhesion is crucial for the initial infection and host-cell invasion of P. aeruginosa. Therefore, compounds 1 and 2, a combination of 1+2 and the dual inhibitor 12 were assessed for their ability to inhibit LecA-binding to human A549 cells. 10 μM of LecA-FITC and different concentrations of the respective compounds were incubated at 4 °C for 30 min with confluent A549 cells.
10 min, facilitating the separation of bacterial cells from the supernatant. The latter was filtered through a 0.22 µm sterile filter and stored at –80 °C until further use. […]
CO2. […] The plates were then incubated for an additional 30 min at 37 °C and then, the UV absorbance was measured using a PHERAstar microplate reader. The test samples were read at a wavelength of 550 nm, while the blank was read at 620 nm. At last, the data were statistically analyzed and presented graphically using GraphPad Prism 9 (Figure S4 and S5). […]
have any negative effects. The plate was then incubated at 4 °C for 30 min and wells were washed 5 times with PBS prior to imaging via fluorescence microscopy.
Fluorescence image acquisition, processing, and quantification
Fluorescence images were captured using an inverted fluorescence microscope (Leica DMi8) equipped with a 20x objective (HC PL APO CS2 20x/0.75 IMM UV), an FITC filter cube (EX: […]

CC(C)CC(S)C(=O)Nc1ccc(S[C@@H]2O[C@H](CO)[C@H](O)[C@H](O)[C@H]2O)cc1 (stereo partly shown) [Compound 12] was tested, and the “inhibition of binding of LecA-FITC to A549 cells” value was “significantly inhibited the binding of LecA-FITC to A549 cells to the background level”.
